Activity calls are given as the source filed them. The rule behind the calls is not given here. *1 amine or outer side, *2 acyl side, *3 side chain or, on linkers, in order; H or OH if unused. Where a SMILES comes first, the peptide text is derived from it. [ ]: non-standard residue; d: D form. X2 = CCC[C@@H](N[*:1])[C@H](C)C(=O)O[C@H](C(=O)[*:2])[C@@H](C)CC; X1 = CC(N[*:1])C(=O)C(C)(C)C(=O)[*:2]; NMeY = CN[C@@H](Cc1ccc(O)cc1)C(=O)O; NMeL = CN[C@@H](CC(C)C)C(=O)O; NMeV = CN[C@H](C(=O)O)C(C)C; NMeA = CN[C@@H](C)C(=O)O

The test system of the assay is HEK-293T NF-kB luciferase reporter counterscreen, luminescence. Put plainly: NF-kB reporter inhibition in HEK-293T, dose response, counter-screen for T-cell antigen receptor NF-kB inhibitors, HEK-293T cells, luminescence (AID 489041). (A counterscreen serves to expose hits that act by an unwanted route or on another target.)
What is called IC50 is the midpoint of a concentration-inhibition curve. As to `CCCC(=O)Nc1nc2ccc(S(=O)(=O)N3CCCCC3)cc2s1`, the half-maximal inhibitory concentration (IC50) is 3.55 µM.

As for `COCCn1c(C)cc(C2=NNC(=Nc3ccccc3F)SC2)c1C`, the half-maximal inhibitory concentration (IC50) is 17.9 µM.

Turning to `COc1ccc(C(=O)Nc2ccc3[nH]c(-c4cccc(OC)c4)cc(=O)c3c2)cc1`, the IC50 is > 80 µM (inactive).

Turning to `O=C(Sc1cccc2cccnc12)c1ccc(F)cc1`, the IC50 is 34.2 µM (inactive).

For the molecule `Cc1cc(C)c(CN2CCN(C(=O)Cn3cnc4c(OCc5ccccc5)ncnc43)CC2)c(C)c1`, the 50% inhibitory concentration (IC50) is 2.6 µM.

As to `COc1cc2c(c(OC)c1OC)-c1ccc(OC)c(=O)cc1[C@@H](NC(C)=O)CC2`, the IC50 is less than 0.16 µM.

With `CCn1cc(C(=O)NC2CCCc3c2cnn3-c2cccc(C)c2C)cn1` (stereo not drawn), the IC50 was 14.7 µM.

For the molecule `CCOC(=O)c1ccc(NC(=O)Cn2cnc3cc(C)c(C)cc32)cc1`, the concentration for half-maximal inhibition (IC50) was 0.88 µM.

Turning to `CCCC1=Nc2cc(C(=O)NCCCOCC)ccc2Sc2ccccc21`, the concentration for half-maximal inhibition (IC50) is 0.97 µM.

As to `O=C1C=C(c2ccc3ncccc3c2)C[C@@H](c2ccc3c(c2)OCO3)C1`, the IC50 was 11.1 µM.

Take `COc1ccc(C(C(=O)NC2CCCCC2)N(C(=O)CCl)c2ccc(C)cc2)cc1` (stereo not drawn): the IC50 is > 80 µM (inactive).

Regarding `CCc1c(C)nc2ncnn2c1NCCc1ccc(OC)cc1`, the IC50 was 3.03 µM.

For the molecule `COc1ccc2c(c1)/C(=C/c1cnc[nH]1)C(=O)N2`, the IC50 is 0.7 µM.

Regarding `CCCCCCCCC[n+]1cccc2c3ccccc3ccc21`, the IC50 was 0.55 µM.

For the molecule `O=C(Sc1cccc2cccnc12)c1ccccc1Br`, the IC50 was 27.1 µM (inactive).

For the molecule `COc1cccc(/C=N/Nc2ncnc3c2ncn3Cc2ccccc2)c1O`, the concentration for half-maximal inhibition (IC50) is 0.25 µM.

In the case of `CCOC(=O)c1ccccc1NS(=O)(=O)c1ccc(OCC)cc1`, the 50% inhibitory concentration (IC50) is 17.7 µM.

As to `O=C1c2c(O)ccc(O)c2C(=O)c2c(NCCNCCO)ccc(NCCNCCO)c21`, the half-inhibitory concentration (IC50) is 10.7 µM.

`Cc1ccc(NC(=O)C2=C(c3ccccc3)S(=O)(=O)CCS2(=O)=O)cc1`: the IC50 is 8.74 µM.

In the case of `COc1ccccc1NC(=O)Cn1nnc(C(=O)NCc2cccs2)c1N`, the IC50 is 1.93 µM.

For `CCCCC(=O)NC(c1ccc(Cl)cc1Cl)c1ccc2cccnc2c1O` (stereo not drawn), the IC50 was > 80 µM (inactive).

Regarding `CCC(C)(C)c1ccc(OCCCC[n+]2cccc(C)c2C)c(C(C)(C)CC)c1`, the half-maximal inhibitory concentration (IC50) is 4.01 µM.

With `COc1cc2c(cc1O)CC[C@@H]1[C@@H]2CC[C@]2(C)[C@@H](O)CC[C@@H]12`, the IC50 is 23 µM (inactive).

Turning to `CC(=O)c1ccc(N2CCN(S(=O)(=O)c3ccc4c(c3)CC(C)N4C(=O)C3CC3)CC2)cc1` (stereo not drawn), the half-maximal inhibitory concentration (IC50) is 3.06 µM.

As for `Cc1ccc(O)c(N=Nc2nccs2)c1`, the IC50 is > 80 µM (inactive).

Consider `CCN1/C(=C/c2ccc3ccccc3[n+]2CC)C=Cc2ccccc21`, for which the IC50 is 1.01 µM.

For `Cc1ccc(Nc2nc(-c3c(C)nc4ncccn34)cs2)cc1`, the half-inhibitory concentration (IC50) was 1 µM.

For the molecule `Cc1nc2ccccc2c2c1CC(C(C)(Cl)Br)O2` (stereo not drawn), the half-inhibitory concentration (IC50) is 2.9 µM.

For the molecule `CCOc1ccc(NC(=O)c2cc3c(C)nc4ccccc4c3o2)cc1`, the IC50 was 6.08 µM.

As for `CCCC(=O)NC(c1ccc(N(C)C)cc1)c1ccc2cccnc2c1O` (stereo not drawn), the IC50 is > 80 µM (inactive).

In the case of `COc1cccc(/C=N/Nc2ncnc3scc(-c4ccccc4)c23)c1O`, the half-maximal inhibitory concentration (IC50) was 4.6 µM.

As for `COc1cc(-c2noc(C)c2-c2ccc3[nH]ccc3c2)cc(OC)c1OC`, the IC50 is 2.45 µM.

As to `CCC[C@H]1NC(=O)[C@H](C)N(C)C(=O)C(C)(C)C(=O)C(C)NC(=O)[C@H](Cc2ccc(OC)cc2)N(C)C(=O)[C@H](C(C)C)N(C)C(=O)CNC(=O)[C@H](CC(C)C)N(C)C(=O)CNC(=O)[C@H]([C@@H](C)CC)OC(=O)[C@H]1C` (stereo partly drawn) (cyclo(G[NMeL]G[NMeV][NMeY](Me)[X1][NMeA][X2])), the IC50 is 46.7 µM (inactive).

For `CCCc1cc(C(=O)Nc2cc(C)ccc2O)no1`, the IC50 is > 80 µM (inactive).

As to `COc1ccccc1C(=O)Nc1nc2ccccc2s1`, the 50% inhibitory concentration (IC50) was 0.8 µM.

On to `C=C(C)COc1ccc(-c2n[nH]c(C)c2-c2ccc(OC)c(OC)c2)c(O)c1`, for which the half-inhibitory concentration (IC50) is 9.37 µM.

On to `Cc1csc2sc(-c3ccnc(SCC(=O)NCc4ccccc4)n3)c(C)c12`, for which the IC50 was 3.8 µM.

As for `CCOC(=O)C1CCN(S(=O)(=O)c2c(Cl)ccc3nonc23)CC1`, the IC50 was 10.7 µM.

Consider `O=C(Nc1ccc(N2CCN(C(=O)c3ccc(Cl)cc3)CC2)cc1)c1ccc2c(c1)OCCO2`, for which the 50% inhibitory concentration (IC50) is 3.1 µM.

Turning to `COC(=O)CCC(=O)NC(=S)Nc1sc(C)c(C)c1C(N)=O`, the half-inhibitory concentration (IC50) was 0.74 µM.

As to `CCOc1ccc(S(=O)(=O)NCc2ccccn2)cc1NC(=O)c1ccccc1`, the IC50 is 40.7 µM (inactive).

For the molecule `C=CCn1c(SCc2c(C)noc2C)nc2ccccc2c1=O`, the IC50 was 2.82 µM.

For `O=C1C=CC(O)(c2cc(=O)c3c(O)cc(O)cc3o2)C=C1`, the IC50 was 20.5 µM (inactive).

Consider `Cc1cc(=O)oc2cc(OCC3CC(c4ccccc4Cl)=NO3)ccc12` (stereo not drawn), for which the concentration for half-maximal inhibition (IC50) is 5.52 µM.

For the molecule `O=C(COc1ccc2c(-c3ccccc3)cc(=O)oc2c1)Nc1cccnc1`, the IC50 was 0.26 µM.

Consider `CCc1cc(C(=O)NC2CCCc3c2cnn3-c2cccc(C)c2C)n(C)n1` (stereo not drawn), for which the IC50 was less than 0.16 µM.

Regarding `Cc1noc(C)c1COc1ccc(C(=O)NNC(=O)c2ccccc2F)cc1`, the IC50 was 30.3 µM (inactive).

Regarding `O=C(Nc1ccc(C(F)(F)F)cc1)c1cccn(Cc2ccc3c(c2)OC(F)(F)O3)c1=O`, the IC50 was 22.5 µM (inactive).

In the case of `O=C(Nc1ccc(S(=O)(=O)N2CCCCC2)cc1)c1ccc(CN2CCOCC2)cc1`, the IC50 was 3.95 µM.

For `Cc1nn(C)c(C)c1CN(Cc1nc(CCC(C)C)no1)C(C)C`, the IC50 was 11 µM.

As for `CCOc1cccc(-c2nnc3n2N=C(c2cc(OC)ccc2OC)CS3)c1`, the 50% inhibitory concentration (IC50) is 4.82 µM.

With `CCOC(=O)c1ccccc1NC(=O)Cn1c(-c2nonc2N)nc2ccccc21`, the IC50 is 0.47 µM.

Turning to `CCOc1ccccc1NC(=O)Cn1nnc(C(=O)NCc2ccco2)c1N`, the IC50 is 26.3 µM (inactive).

Turning to `Cc1cc(-c2ccc(C(C)C)c(S(=O)(=O)N3CCN(c4ccccc4)CC3)c2)on1`, the IC50 is 22 µM (inactive).

As to `O=C(OCCN1C(=O)c2cccc3c(N4CCOCC4)ccc(c23)C1=O)c1ccc(Cl)cc1`, the half-maximal inhibitory concentration (IC50) was 7.66 µM.

As to `O=c1cc(-c2ccccc2)[nH]c2cc(Cl)ccc12`, the IC50 was 19.1 µM.

Turning to `COc1ccc(Cn2c(SCc3ccc(C)cc3)nc3cc(OC)c(OC)cc3c2=N)cc1Cl`, the IC50 is > 80 µM (inactive).

On to `COC(=O)c1[nH]c2ccc(Br)cc2c1NC(=O)CN1CCN(C2CCCCC2)CC1`, for which the IC50 is 13.4 µM.

`CCOC(=O)C(C)Oc1cccc2c(=O)n(CC(=O)NCc3ccco3)ccc12` (stereo not drawn): the IC50 was 7.92 µM.

`NC(=O)CC(NC(=O)c1ccc(Br)cc1)c1ccc(N2CCCCCC2)c([N+](=O)[O-])c1` (stereo not drawn): the IC50 was 29.3 µM (inactive).

Consider `CSC1=NC(C(Cl)(Cl)Cl)N=C(c2ccc(C)cc2)N1` (stereo not drawn), for which the IC50 was 12.5 µM.

In the case of `COc1ccc(/C=N/Nc2cc(C)nc3ccc(OC)cc23)c(OC)c1`, the IC50 was 25.7 µM (inactive).

For the molecule `COc1ccc(OC)c(-c2nnc3n2N=C(c2ccc(OC)c(OC4CCCC4)c2)CS3)c1`, the IC50 was 3.09 µM.

`Cc1cc(-c2ccc(S(=O)(=O)N(C)c3ccc(C)c(C)c3)s2)on1`: the 50% inhibitory concentration (IC50) is 7.86 µM.

With `COc1ccc2c(c1)C(=O)N1[C@H]3c4cc(Br)ccc4OC[C@@H]3[C@H](c3ccccc3)[C@]1(C)C(=O)N2`, the IC50 was > 80 µM (inactive).

In the case of `CCCC[C@@H](C)C[C@@H](C)C(=O)N(C)[C@@H](CC(C)C)C(=O)N[C@H](C(=O)N(C)[C@H](C(=O)N1C[C@@H](O)C[C@H]1C(=O)N1C(=O)C=C[C@@H]1C)C(C)C)C(C)OC(C)=O` (stereo partly drawn), the IC50 was less than 0.16 µM.

Consider `COc1ccc([N+](=O)[O-])cc1Nc1c2ccccc2nc2ccccc12`, for which the IC50 is 1.38 µM.

For `COc1ccc(CC(=O)Nc2cccc(-c3nnc(-c4cccc(C)c4)o3)c2)cc1OC`, the IC50 was 1.24 µM.

As to `COc1cc(-c2c(-c3cc(OC)c(OC)c(OC)c3)noc2C)ccc1F`, the IC50 is 0.72 µM.

For the molecule `Cn1c2c(c(=O)n(C)c1=O)C(C(F)(F)F)(C(F)(F)F)N=C(c1ccc(Cl)cc1)N2`, the IC50 was 1.62 µM.

Consider `Cc1cccc(OCCNC(=O)c2ccc(Cl)c(S(=O)(=O)NCc3cccnc3)c2)c1`, for which the IC50 is 10.1 µM.

Consider `CCOC(=O)c1[nH]c(C)c(C(=O)Nc2ccc(C)cc2C)c1C`, for which the IC50 is 46.1 µM (inactive).

As for `CCCCCCCCCCCCCCCC[n+]1cccc(C(=O)N(CC)CC)c1`, the IC50 is 20.9 µM (inactive).

For `CSc1nccc(-c2nn(-c3ccc(C)cc3)ccc2=O)n1`, the IC50 is 6.22 µM.

In the case of `COc1ccccc1N1CCN(C(=O)c2ccc(-c3ccc(Cl)cc3)o2)CC1`, the half-maximal inhibitory concentration (IC50) was 10.1 µM.

`N#C/C(=C\c1ccc(OCc2ccc(C(=O)O)cc2)cc1)C(=O)N1CCOCC1`: the IC50 was 4.51 µM.

As to `C[C@@H]1O[C@@H](O[C@H]2C[C@@H](O)[C@]3(CO)[C@@H]4C(CC[C@]3(O)C2)[C@@]2(O)CC[C@H](C3COC(=O)C3)[C@@]2(C)C[C@H]4O)[C@H](O)[C@H](O)[C@H]1O` (stereo partly drawn), the half-inhibitory concentration (IC50) is 0.69 µM.

For the molecule `COc1ccc(C(=O)c2ccc(N(C)C)cc2)c(OC)c1`, the IC50 is 71.1 µM (inactive).

`COc1ccccc1N1CCN(C(=O)C2c3ccccc3Oc3ccccc32)CC1`: the IC50 is 14.2 µM.

On to `CSc1nc(N(C)NC(=O)c2cccc(C)c2)c2ccccc2n1`, for which the concentration for half-maximal inhibition (IC50) is 4.16 µM.

Consider `O=S(=O)(C/C(=C/CO)S(=O)(=O)c1ccccc1)c1ccccc1`, for which the IC50 is 6.81 µM.

Regarding `CCN(CC)c1ccc(-c2nn3c(-c4ccccc4OC)nnc3s2)cc1`, the IC50 is 1.87 µM.

In the case of `Cc1ccc(C(=O)c2cc([N+](=O)[O-])ccc2N2CCCCC2)c(C)c1`, the IC50 was 7.17 µM.

Regarding `Cc1nc(Nc2nc3c(c(=O)[nH]2)CCC3)nc2ccccc12`, the IC50 is 40.1 µM (inactive).

As to `CCCCc1ccc(NC(=O)C(=O)NCCN2CCN(Cc3ccc([N+](=O)[O-])cc3)CC2)cc1`, the IC50 was 0.4 µM.

`CCO[C@H]1OC(C(=O)NCc2nc3ccccc3[nH]2)=C[C@@H](C2CC2)[C@@H]1CCCO`: the IC50 was 41.1 µM (inactive).

Consider `COc1cc(C(=O)N2CCN(c3cc(Cl)ccc3Cl)CC2)cc(OC)c1OC`, for which the IC50 was 3.01 µM.

For the molecule `CCCCn1c2c(c(=N)c3c1CCC3)CCC2`, the 50% inhibitory concentration (IC50) is 8.5 µM.

The values above are taken from PubChem BioAssay AID489041 (Sanford-Burnham Center for Chemical Genomics, 2010).
